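Assay format: 96-well plates, 48-hour exposure. At the TGI there is no net growth.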
Experiments:
Experiment in all cases: growth of human tumour cells (NCI), 48 h
NCI-H522 lung = tested on: NCI-H522 lung
TK-10 renal = tested on: TK-10 renal
UACC-62 melanoma = tested on: UACC-62 melanoma
ACHN renal = tested on: ACHN renal
PC-3 prostate = tested on: PC-3 prostate
HL-60(TB) leukemia = tested on: HL-60(TB) leukemia
HS 578T breast = tested on: HS 578T breast
HOP-62 NSCLC = tested on: HOP-62 NSCLC
MDA-N = tested on: MDA-N
T-47D breast = tested on: T-47D breast
SW-620 colon = tested on: SW-620 colon
SF-539 CNS = tested on: SF-539 CNS
A549 NSCLC = tested on: A549 NSCLC
SK-MEL-2 melanoma = tested on: SK-MEL-2 melanoma
NCI-H23 lung = tested on: NCI-H23 lung
IGROV1 ovarian = tested on: IGROV1 ovarian
K-562 leukemia = tested on: K-562 leukemia
SK-MEL-28 melanoma = tested on: SK-MEL-28 melanoma
SNB-75 CNS = tested on: SNB-75 CNS
NCI-H226 lung = tested on: NCI-H226 lung

N/N=C(\N)SCc1ccc(N=C=S)cc1
TGI (NCI-H522 lung): > 100 µM
TGI (TK-10 renal): > 100 µM
TGI (UACC-62 melanoma): > 100 µM
TGI (ACHN renal): > 100 µM
TGI (PC-3 prostate): > 100 µM
TGI (HL-60(TB) leukemia): > 100 µM
TGI (HS 578T breast): > 100 µM
TGI (HOP-62 NSCLC): > 100 µM
TGI (MDA-N): > 100 µM
TGI (T-47D breast): > 100 µM
TGI (SW-620 colon): > 100 µM
TGI (SF-539 CNS): > 100 µM
TGI (A549 NSCLC): > 100 µM
TGI (SK-MEL-2 melanoma): > 100 µM
TGI (NCI-H23 lung): > 100 µM
TGI (IGROV1 ovarian): > 100 µM
TGI (K-562 leukemia): > 100 µM
TGI (SK-MEL-28 melanoma): > 100 µM
TGI (SNB-75 CNS): > 100 µM

CC(C)(C)OC(=O)NCCCCC1NC(=O)[C@@H]2Cc3c([nH]c4ccccc34)C(c3ccccc3)N2C1=O (stereo partly drawn)
TGI (NCI-H522 lung): > 100 µM
TGI (TK-10 renal): > 100 µM
TGI (UACC-62 melanoma): 95.6 µM
TGI (ACHN renal): > 100 µM
TGI (PC-3 prostate): > 100 µM
TGI (HL-60(TB) leukemia): 52.3 µM
TGI (HS 578T breast): 49.6 µM
TGI (HOP-62 NSCLC): > 100 µM
TGI (MDA-N): > 100 µM
TGI (T-47D breast): > 100 µM
TGI (SW-620 colon): > 100 µM
TGI (NCI-H226 lung): > 100 µM
TGI (A549 NSCLC): > 100 µM
TGI (SK-MEL-2 melanoma): 50.5 µM
TGI (NCI-H23 lung): > 100 µM
TGI (IGROV1 ovarian): > 100 µM
TGI (K-562 leukemia): > 100 µM
TGI (SK-MEL-28 melanoma): > 100 µM

O=C(C[N+]1(c2ccccc2)CCOCC1)c1ccccc1
TGI (NCI-H522 lung): > 100 µM
TGI (TK-10 renal): > 100 µM
TGI (UACC-62 melanoma): > 100 µM
TGI (ACHN renal): > 100 µM
TGI (PC-3 prostate): > 100 µM
TGI (HS 578T breast): > 100 µM
TGI (HOP-62 NSCLC): > 100 µM
TGI (MDA-N): > 100 µM
TGI (T-47D breast): > 100 µM
TGI (NCI-H226 lung): > 100 µM
TGI (A549 NSCLC): > 100 µM
TGI (SK-MEL-2 melanoma): > 100 µM
TGI (NCI-H23 lung): > 100 µM
TGI (IGROV1 ovarian): > 100 µM
TGI (K-562 leukemia): > 100 µM
TGI (SK-MEL-28 melanoma): 0.0908 µM
TGI (SNB-75 CNS): > 100 µM

O=C(Cn1c(-c2ccccc2)cc2ccccc21)N1CCOCC1
TGI (NCI-H522 lung): > 100 µM
TGI (TK-10 renal): > 100 µM
TGI (UACC-62 melanoma): > 100 µM
TGI (ACHN renal): > 100 µM
TGI (PC-3 prostate): > 100 µM
TGI (HL-60(TB) leukemia): > 100 µM
TGI (HS 578T breast): > 100 µM
TGI (HOP-62 NSCLC): > 100 µM
TGI (MDA-N): > 100 µM
TGI (T-47D breast): > 100 µM
TGI (SW-620 colon): > 100 µM
TGI (NCI-H226 lung): > 100 µM
TGI (SF-539 CNS): > 100 µM
TGI (A549 NSCLC): > 100 µM
TGI (SK-MEL-2 melanoma): > 100 µM
TGI (NCI-H23 lung): > 100 µM
TGI (IGROV1 ovarian): > 100 µM
TGI (K-562 leukemia): > 100 µM
TGI (SK-MEL-28 melanoma): > 100 µM

CCOC(=O)c1sc2nc(SC)nc3c2c1NCN3c1ccccc1Cl
TGI (NCI-H522 lung): 52.7 µM
TGI (TK-10 renal): > 100 µM
TGI (UACC-62 melanoma): > 100 µM
TGI (ACHN renal): > 100 µM
TGI (PC-3 prostate): > 100 µM
TGI (HS 578T breast): 73.3 µM
TGI (HOP-62 NSCLC): > 100 µM
TGI (MDA-N): > 100 µM
TGI (T-47D breast): 60.3 µM
TGI (SW-620 colon): > 100 µM
TGI (NCI-H226 lung): > 100 µM
TGI (A549 NSCLC): > 100 µM
TGI (SK-MEL-2 melanoma): > 100 µM
TGI (NCI-H23 lung): > 100 µM
TGI (IGROV1 ovarian): > 100 µM
TGI (K-562 leukemia): > 100 µM
TGI (SK-MEL-28 melanoma): > 100 µM
TGI (SNB-75 CNS): 64.9 µM

CC1=C(C(=O)OC(C)(C)C)C(c2ccc([N+](=O)[O-])cc2)C(C(=O)OC(C)(C)C)=C(C)N1
TGI (NCI-H522 lung): 36.4 µM
TGI (TK-10 renal): 38.1 µM
TGI (UACC-62 melanoma): 34.8 µM
TGI (ACHN renal): 41.3 µM
TGI (PC-3 prostate): 45.1 µM
TGI (HS 578T breast): 43.4 µM
TGI (HOP-62 NSCLC): 40.8 µM
TGI (MDA-N): 48.6 µM
TGI (T-47D breast): 33.4 µM
TGI (SW-620 colon): 54 µM
TGI (NCI-H226 lung): 39.1 µM
TGI (SF-539 CNS): 34.9 µM
TGI (A549 NSCLC): 52.3 µM
TGI (SK-MEL-2 melanoma): 46.6 µM
TGI (NCI-H23 lung): 45.3 µM
TGI (IGROV1 ovarian): 32.2 µM
TGI (K-562 leukemia): 54 µM
TGI (SK-MEL-28 melanoma): 43.4 µM
TGI (SNB-75 CNS): 61.2 µM

O=C1C[C@@]23CCC4(CC2=CCC[C@H]3O1)OCCO4
TGI (NCI-H522 lung): > 100 µM
TGI (TK-10 renal): > 100 µM
TGI (UACC-62 melanoma): > 100 µM
TGI (ACHN renal): > 100 µM
TGI (PC-3 prostate): > 100 µM
TGI (HL-60(TB) leukemia): > 100 µM
TGI (HS 578T breast): > 100 µM
TGI (HOP-62 NSCLC): > 100 µM
TGI (MDA-N): > 100 µM
TGI (T-47D breast): > 100 µM
TGI (SW-620 colon): > 100 µM
TGI (NCI-H226 lung): > 100 µM
TGI (SF-539 CNS): > 100 µM
TGI (A549 NSCLC): > 100 µM
TGI (SK-MEL-2 melanoma): > 100 µM
TGI (NCI-H23 lung): > 100 µM
TGI (IGROV1 ovarian): > 100 µM
TGI (K-562 leukemia): > 100 µM
TGI (SK-MEL-28 melanoma): > 100 µM

CCN(CCCl)c1ccc(NC(=O)c2cc(C(=O)NCCN(C)C)cc(C(=O)Nc3ccc(N(CC)CCCl)cc3)c2)cc1
TGI (NCI-H522 lung): 11.4 µM
TGI (TK-10 renal): 38 µM
TGI (UACC-62 melanoma): 27.5 µM
TGI (ACHN renal): 21.3 µM
TGI (PC-3 prostate): 16.3 µM
TGI (HL-60(TB) leukemia): 3.19 µM
TGI (HS 578T breast): 12.4 µM
TGI (HOP-62 NSCLC): 16.4 µM
TGI (MDA-N): 29.6 µM
TGI (T-47D breast): 53.9 µM
TGI (SW-620 colon): 18 µM
TGI (NCI-H226 lung): 25.1 µM
TGI (SF-539 CNS): 12.3 µM
TGI (A549 NSCLC): 25.7 µM
TGI (SK-MEL-2 melanoma): 44.1 µM
TGI (NCI-H23 lung): 23.5 µM
TGI (IGROV1 ovarian): 29.1 µM
TGI (SK-MEL-28 melanoma): 41.4 µM
TGI (SNB-75 CNS): 69.6 µM

O=C1Cc2c([nH]c3c(Br)cccc23)-c2ccccc2N1
TGI (UACC-62 melanoma): > 100 µM
TGI (ACHN renal): > 100 µM
TGI (PC-3 prostate): > 100 µM
TGI (HL-60(TB) leukemia): 73.8 µM
TGI (HS 578T breast): > 100 µM
TGI (HOP-62 NSCLC): > 100 µM
TGI (MDA-N): > 100 µM
TGI (T-47D breast): > 100 µM
TGI (SW-620 colon): > 100 µM
TGI (NCI-H226 lung): > 100 µM
TGI (SF-539 CNS): > 100 µM
TGI (A549 NSCLC): > 100 µM
TGI (SK-MEL-2 melanoma): > 100 µM
TGI (NCI-H23 lung): > 100 µM
TGI (IGROV1 ovarian): > 100 µM
TGI (K-562 leukemia): 56.5 µM
TGI (SNB-75 CNS): > 100 µM

Nc1nc(N)c2ncn(Cc3ccccc3)c2n1
TGI (NCI-H522 lung): > 100 µM
TGI (TK-10 renal): > 100 µM
TGI (UACC-62 melanoma): > 100 µM
TGI (ACHN renal): > 100 µM
TGI (PC-3 prostate): > 100 µM
TGI (HS 578T breast): > 100 µM
TGI (HOP-62 NSCLC): > 100 µM
TGI (MDA-N): > 100 µM
TGI (T-47D breast): > 100 µM
TGI (SW-620 colon): > 100 µM
TGI (NCI-H226 lung): > 100 µM
TGI (SF-539 CNS): > 100 µM
TGI (A549 NSCLC): > 100 µM
TGI (SK-MEL-2 melanoma): > 100 µM
TGI (NCI-H23 lung): > 100 µM
TGI (IGROV1 ovarian): > 100 µM
TGI (SK-MEL-28 melanoma): > 100 µM
TGI (SNB-75 CNS): 0.937 µM

Reference: PubChem BioAssay (NCI)
